Molecular target: T1, GPR119 receptor (Mesocricetus auratus, UniProt A0A1U8CD06)
T1 construct: which endogenously express the GPR119 receptor; host or cells: HIT-T15 hamster pancreatic islet cells
T1 sequence (A0A1U8CD06 1-334): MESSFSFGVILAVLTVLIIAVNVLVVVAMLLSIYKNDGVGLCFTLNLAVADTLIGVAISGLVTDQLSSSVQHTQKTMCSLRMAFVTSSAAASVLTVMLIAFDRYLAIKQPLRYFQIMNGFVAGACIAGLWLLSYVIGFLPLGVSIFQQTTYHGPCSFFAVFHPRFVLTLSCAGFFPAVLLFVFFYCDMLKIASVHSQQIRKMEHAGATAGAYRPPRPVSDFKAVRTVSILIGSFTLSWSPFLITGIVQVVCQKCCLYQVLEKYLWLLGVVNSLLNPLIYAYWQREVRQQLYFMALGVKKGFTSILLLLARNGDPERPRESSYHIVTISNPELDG
Test: cAMP assay in HIT-T15 hamster pancreatic islet cells (functional agonist activity)
Type: cell-based
Settings: HIT-T15 cells endogenously expressing GPR119; 30 min at 25° C.; intracellular cAMP
Description: The functional agonist activities of compounds of the invention were characterized using a cAMP assay in HIT-T15 hamster pancreatic islet cells (American Type Culture Collection, Manassas, Va., USA) which endogenously express the GPR119 receptor. The cells were cultured in Kaighn's modification of Ham's F12 medium (Invitrogen Corporation, Carlsbad, Calif., USA) containing 10% horse serum, 2.5% FBS, and 1% Pen/Strep and grown in 225 cm^2 tissue culture flasks until they reached 75-85% confluence.
The cells were harvested 24 h prior to assay with 5 ml Versene®, washed with Kaighn/F12 medium and then plated into white 384-well plates (9000 cells/well) containing Kaighn/F12 medium. Prior to assay, the culture medium was replaced with a Kaighn/F12 medium without phenol red (50 μL/well) containing 0.5 mM 3-isobutyl-1-methylxanthine, 0.5 mg/ml BSA. The cells were incubated in the dark for 30 min at 25° C. in the absence or presence of varying concentrations of agonist (1 μL, 100% DMSO). The incubation media was discarded and replaced with the assay lysis buffer (50 μL/well) provided in the Tropix cAMP-Screen® kit (Applied Biosystems, Foster City, Calif., USA) and the plates incubated for 45 min at 37° C. The intracellular levels of cAMP generated in the HIT-T 15 cells were measured using the Tropix kit. In brief, 20 μL of the lysate was transferred into pre-coated antibody plates (384-well; Tropix kit) along with 10 μL of alkaline phosphatase conjugate and 20 μL of anti-cAMP antibody and the plates were incubated for 1 h at room temperature while shaking. The plates were then washed 5 times with wash buffer (70 μL) and tapped dry. CSPD®/Sapphire-II™ RTU substrate/enhancer solution (Applied Biosystems, Foster City, Calif., USA; 30 μL) was added and the plates were incubated for 45 min at room temperature while shaking. The signal generated was measured using a Wallac Victor V Luminometer (PerkinElmer Life And Analytical Sciences, Inc., Waltham, Mass., USA; 1 sec/well). EC50 values were calculated using the XLFit program (ID Business Solutions Ltd., Guildford, Surrey, UK).

Row | EC50 [µM] | SMILES
1 | 0.11 | CC(C)COC(=O)N1CCC(n2ncc3c(Oc4ccc(S(C)(=O)=O)cc4)ncnc32)CC1 [Example 106, 4-[4-(4-Methanesulfonyl-phenoxy)-pyrazolo[3,4-d]pyrimidin-1-yl]-piperidine-1-carboxylic acid isobutyl ester]
2 | 0.55 | Cc1nc(-c2ccc(Oc3ncnc4c3cnn4C3CCN(C(=O)OC(C)(C)C)CC3)cc2)no1 [Example 85, 4-{4-[4-(5-Methyl-[1,2,4]oxadiazol-3-yl)-phenoxy]-pyrazolo[3,4-d]pyrimidin-1-yl}-piperidine-1-carboxylic acid tert-butyl ester]
3 | 0.28 | CS(=O)(=O)c1ccc(Oc2ncnc3c2cnn3C2CCN(Cc3cccc(Cl)c3)CC2)cc1 [Example 158, 1-[1-(3-Chloro-benzyl)-piperidin-4-yl]-4-(4-methanesulfonyl-phenoxy)-1H-pyrazolo[3,4-d]pyrimidine]
4 | 0.75 | CS(=O)(=O)c1ccc(Oc2ncnc3c2cnn3C2CCN(C(=O)C3CCC3)CC2)cc1 [Example 140, Cyclobutyl-{4-[4-(4-methanesulfonyl-phenoxy)-pyrazolo[3,4-d]pyrimidin-1-yl]-piperidin-1-yl}-methanone]
5 | 0.85 | CCCCOC(=O)N1CCC(n2ncc3c(Oc4cccnc4C)ncnc32)CC1 [Example 104, 4-[4-(2-Methyl-pyridin-3-yloxy)-pyrazolo[3,4-d]pyrimidin-1-yl]-piperidine-1-carboxylic acid butyl ester]
6 | 0.75 | CC(C)(C)OC(=O)N1CCC(n2ncc3c(Oc4ccc([N+](=O)[O-])cc4F)ncnc32)CC1 [Example 66, 4-[4-(2-Fluoro-4-nitro-phenoxy)-pyrazolo[3,4-d]pyrimidin-1-yl]-piperidine-1-carboxylic acid tert-butyl ester]
7 | 0.16 | CS(=O)(=O)c1ccc(Oc2ncnc3c2cnn3C2CCN(C(=O)OCC(F)(F)F)CC2)cc1 [Example 113, 4-[4-(4-Methanesulfonyl-phenoxy)-pyrazolo[3,4-d]pyrimidin-1-yl]-piperidine-1-carboxylic acid 2,2,2-trifluoro-ethyl ester]
8 | 0.49 | CC(C)(C)OC(=O)N1CCC(n2ncc3c(Oc4ccc(-c5ccsc5)cc4)ncnc32)CC1 [Example 86, 4-[4-(4-Thiophen-3-yl-phenoxy)-pyrazolo[3,4-d]pyrimidin-1-yl]-piperidine-1-carboxylic acid tert-butyl ester]
9 | 0.27 | CC(C)(C)CC(=O)N1CCC(n2ncc3c(Oc4ccc(S(C)(=O)=O)cc4)ncnc32)CC1 [Example 144, 1-{4-[4-(4-Methanesulfonyl-phenoxy)-pyrazolo[3,4-d]pyrimidin-1-yl]-piperidin-1-yl}-3,3-dimethyl-butan-1-one]
10 | 0.21 | CC(C)(C)OC(=O)N1CCCC(n2ncc3c(Oc4ccc(S(C)(=O)=O)cc4)ncnc32)C1 (single isomer, unassigned) [Example 89]
11 | 0.083 | CC(C)(C)OC(=O)N1CCC(n2ncc3c(Oc4ccc(C(F)(F)F)cc4Cl)ncnc32)CC1 [Example 54, 4-[4-(2-Chloro-4-trifluoromethyl-phenoxy)-pyrazolo[3,4-d]pyrimidin-1-yl]-piperidine-1-carboxylic acid tert-butyl ester]
12 | 1 | CC(OC(=O)N1CCC(n2ncc3c(Oc4ccc(S(C)(=O)=O)cc4)ncnc32)CC1)C(F)(F)F (centres unmarked) [Example 110, 4-[4-(4-Methanesulfonyl-phenoxy)-pyrazolo[3,4-d]pyrimidin-1-yl]-piperidine-1-carboxylic acid 2,2,2-trifluoro-1-methyl-ethyl ester]
13 | 3.34 | Cc1nnnn1-c1ccc(Oc2ncnc3c2cnn3[C@H]2CC[C@H](c3nc(C(C)C)no3)CC2)cc1 [Example 133, 1-[4-(3-Isopropyl-[1,2,4]oxadiazol-5-yl)-trans-cyclohexyl]-4-[4-(5-methyl-tetrazol-1-yl)phenoxy]-1H-pyrazolo[3,4-d]pyrimidine]
14 | 0.58 | CS(=O)(=O)c1ccc(Oc2ncnc3c2cnn3C2CCN(C(=O)CC3CCCCC3)CC2)cc1 [Example 145, 2-Cyclohexyl-1-{4-[4-(4-methanesulfonyl-phenoxy)-pyrazolo[3,4-d]pyrimidin-1-yl]-piperidin-1-yl}-ethanone]
